Reference: paper PMC11909128, “Identification and inhibition of PIN1-NRF2 protein–protein interactions through computational and biophysical approaches” (Scientific Reports, 2025)
Like-named read-outs stand apart in the source and are kept apart here. Square brackets hold non-standard residues; d marks the D form. Ends that are not written are not given here. Peptide text beside a SMILES is read from it. * marks the point of attachment. fluorescein = fluorescein label at the N-terminus via an aminohexanoic acid (Ahx) linker; FITC = O=C1OC2(c3ccc(O)cc3Oc3cc(O)ccc32)c2ccc(NC(=S)*)cc21; pS = N[C@@H](COP(=O)(O)O)C(=O)O; Ahx = NCCCCCC(=O)O

Experiments:
PIN1-NRF2 interaction [1] = molecular target: T1, PIN1-NRF2 interaction (Homo sapiens, UniProt Q13526, M1N); assay: FP protein titration: GST-PIN1 titrated to fluorescently labelled NRF2 phospho-peptides in the presence of a fixed concentration of Pintide or PIN1 inhibitor; format: binding; conditions: for fold reduction in binding affinity of NRF2_209-222^pSer215 / fold reduction in binding affinity of NRF2_402-415^pSer408 / fold reduction in binding affinity of NRF2_571-584^pSer577: inhibitor 100 µM vs DMSO
T1 construct: host or cells: E. coli BL21 (DE3)
Description: First, GST-PIN1 was titrated to the fluorescently labelled Nrf 2 phospho-peptides (10 nM) in the presence of a fixed concentration of Pintide (10 µM).
In this study, we integrated three different PIN1 inhibitors, including juglone, epigallocatechin gallate (EGCG), and KPT-6566 (Fig. 6a). […] First, GST-PIN1 was titrated to the fluorescently labelled NRF2 phospho-peptides (10 nM) in the presence of a fixed concentration of PIN1 inhibitor (100 µM).
(§1) Fluorescence polarisation experiments were performed at room temperature in a buffer consisting of 5 mM HEPES pH 7.4, 30 mM NaCl, 0.1% v/v Tween20, and 1% v/v DMSO. Corning black, round-bottom, low-binding 384-well plates were utilized for all assays. The NRF2 mimicking fluorescein-labelled peptides, ETTMVPp[…] (NRF2_209-222^pSer215), DMVQPLp[…] (NRF2_402-415^pSer408), and EDGKPYp[…] (NRF2_571-584^pSer577) and the Pintide peptide (WFYpSPFLE) with the optimal binding for the WW domain were commercially purchased from China Peptides. For protein titration studies, GST-PIN1 was titrated to the fluorescently-labelled Nrf 2 phospho-peptides (10 nM) in the presence of a fixed concentration of PIN1 inhibitor (100 μM) or only DMSO as control group. To show PIN1 specificity, only GST protein was used as the control protein group. Fluorescence polarisation was measured using a CLARIOstar® Microplate Reader with an excitation wavelength of λex: 490/20 nm and an emission wavelength of λem: 535/20 nm. The binding affinities (Kd) were determined by sing GraphPad Prism 7 software, and sigmoidal curves were fitted using the equation: Y = Bottom + (Top − Bottom)/(1 + 10^((Log app.Kd − X) * HillSlope)), where Y represents the mP value, X denotes the log protein concentration, and Top and Bottom represent the plateaus in mP. Moreover, for the ligand displacement assays, the inhibitors were titrated to a fixed concentration of GST-PIN1 (1 μM) and fluorescently labelled NRF2 peptide (10 nM). The change in polarisation values were normalised to the DMSO control group and presented as percentage change.

PIN1-NRF2 interaction [2] = molecular target: T1, PIN1-NRF2 interaction; assay: FP competition / ligand displacement assay: competitor titrated to fixed GST-PIN1 and fluorescently labelled NRF2 peptide; format: binding
Description: Next, a competition binding assay was used to determine if Pintide competed for PIN1 binding with the NRF2 peptides in a concentration dependent manner. Thus, Pintide was titrated to a fixed concentration of GST-PIN1 (1 µM) and fluorescently labelled NRF2 peptide (10 nM).
Thus, the inhibitors were titrated to a fixed concentration of GST-PIN1 (1 µM) and fluorescently labelled NRF2 peptide (10 nM).
as §1

PIN1 [3] = molecular target: T2, PIN1 (Homo sapiens, UniProt Q13526); assay: Denaturing mass spectrometry of PIN1 incubated with KPT-6566 (covalent modification); conditions: PIN1 10 µM, KPT-6566 30 µM, 1 h
Description: KPT-6566 was previously shown to covalently modify the PIN1 PPIase domain at Cys113 via an unusual disulfide exchange of the sulfonyl-acetate moiety (KPT-65666-A, Fig. 7a)[31]. […] The remaining fragment of KPT-6566 (KPT-6566-B) was reported to be released into the cytoplasm. To verify this, we incubated PIN1 (10 µM) with KPT-6566 (30 µM) and then analysed the results by denaturing mass spectrometry. […] Of this, there was only a barely detectable trace of covalent PIN1 modification with KPT-6566-A (Supplementary Fig. 6a, b). […] Given these findings, the effects of both modes of covalent PIN1 modification by KPT-6566 on NRF2 phospho-peptide binding were subject to computational simulations.
From protein stock, PIN1 was diluted into an assay buffer solution of 50 mM HEPES, 300 mM NaCl pH 7.4 to a final concentration 10 μM and incubated with KPT-6566 (30 μM) for 1 h. Then, the sample was 2-times diluted by using H2O containing 0.1% v/v formic acid solution to give a final protein concentration of 0.1–1 mg/mL, and mass spectra were obtained using a Waters Acquity XEVO Q ToF instrument.

PIN1 [4] = molecular target: T2, PIN1; parameters: method as in PMID 28598431; conditions: disulfide exchange of the sulfonyl-acetate moiety at Cys113; cited from earlier work
breast cancer cells = tested on: breast cancer cells; parameters: method as in PMID 28598431; conditions: breast cancer cells treated with KPT-6566; cited from earlier work
GST-PIN1 [5] = molecular target: GST-PIN1 (Homo sapiens, UniProt Q13526, M1N); assay: Fluorescence polarisation (FP) direct binding: GST-PIN1 titrated to fluorescently labelled phospho-peptide; parameters: host or cells: E. coli BL21 (DE3); conditions: apparent Kd compared with Pintide
Description: as §1, with “Moreover, for the ligand displacement assays, the inhibitors were titrated to a fixed concentration of GST-PIN1 (1 μM) and fluorescently labelled NRF2 peptide (10 nM). The change in polarisation values were normalised to the DMSO control group and presented as percentage change.” left out

GST-PIN1 [6] = molecular target: T3, GST-PIN1 (UniProt Q13526 1-163, methionine (Met 1) mutated to asparagine (Asn 1)); assay: FP; 10 uM Pintide
T3 sequence (Q13526 other isoform, or with tags, fused parts or gaps methionine (Met 1) mutated to asparagine (Asn 1)): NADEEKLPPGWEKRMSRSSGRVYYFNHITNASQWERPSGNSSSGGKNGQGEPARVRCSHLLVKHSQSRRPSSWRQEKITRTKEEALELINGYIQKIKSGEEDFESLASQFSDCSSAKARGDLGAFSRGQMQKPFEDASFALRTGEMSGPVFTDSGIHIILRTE

GST-PIN1 [7] = molecular target: T3, GST-PIN1; assay: FP; 100 uM juglone
GST-PIN1 [8] = molecular target: T3, GST-PIN1; assay: FP; 100 uM KPT-6566
GST-PIN1 [9] = molecular target: T4, GST-PIN1 (UniProt Q13526 1-163, methionine (Met 1) mutated to asparagine (Asn 1)); assay: fluorescence polarisation; GST-PIN1 (or GST) titrated to fluorescently labelled peptide (10 nM); room temperature; 5 mM HEPES pH 7.4, 30 mM NaCl, 0.1% v/v Tween20, 1% v/v DMSO; apparent Kd, variable slope dose-response fit; conditions: both partners purified
T4 construct: peptidyl-prolyl cis-trans isomerase PIN1 from the GST-PIN1 plasmid (Addgene #19027); also called GST-tagged PIN1 construct; source: E. coli BL21 (DE3), purified (Glutathione spin columns)
T4 sequence (Q13526 other isoform, or with tags, fused parts or gaps with the stated changes): as the sequence (Q13526 other isoform, or with tags, fused parts or gaps methionine (Met 1) mutated to asparagine (Asn 1)) above

GST-PIN1 [10] = molecular target: T3, GST-PIN1; assay: FP; 100 uM EGCG
GST-PIN1 [11] = molecular target: T4, GST-PIN1; assay: fluorescence polarisation; competition: Pintide titrated to GST-PIN1 (1 uM) and fluorescently labelled NRF2(209-222) pSer215 peptide (10 nM); conditions: both partners purified
GST-PIN1 [12] = molecular target: T4, GST-PIN1; assay: fluorescence polarisation; competition: Pintide titrated to GST-PIN1 (1 uM) and fluorescently labelled NRF2(402-415) pSer408 peptide (10 nM); conditions: both partners purified
GST-PIN1 [13] = molecular target: T4, GST-PIN1; assay: fluorescence polarisation; competition: Pintide titrated to GST-PIN1 (1 uM) and fluorescently labelled NRF2(571-584) pSer577 peptide (10 nM); conditions: both partners purified
[14] = GST-PIN1 1 µM, labelled NRF2_402-415^pSer408 10 nM, read-out: IC50, inhibition of NRF2_402-415^pSer408 binding to PIN1
[15] = GST-PIN1 1 µM, labelled NRF2_571-584^pSer577 10 nM, read-out: IC50, inhibition of NRF2_571-584^pSer577 binding to PIN1

T1 sequence (Q13526 whole entry M1N): as the sequence (Q13526 other isoform, or with tags, fused parts or gaps methionine (Met 1) mutated to asparagine (Asn 1)) above
T2 sequence (Q13526 whole entry, the tested form may be a part): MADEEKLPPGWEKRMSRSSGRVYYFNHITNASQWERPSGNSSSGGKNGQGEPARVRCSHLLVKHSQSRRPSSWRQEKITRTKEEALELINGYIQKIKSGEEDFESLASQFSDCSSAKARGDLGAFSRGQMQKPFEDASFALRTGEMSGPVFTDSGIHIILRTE
GST-PIN1 (Homo sapiens, UniProt Q13526, M1N), sequence (Q13526 whole entry M1N): as the sequence (Q13526 other isoform, or with tags, fused parts or gaps methionine (Met 1) mutated to asparagine (Asn 1)) above

O=C(O[C@@H]1Cc2c(O)cc(O)cc2O[C@@H]1c1cc(O)c(O)c(O)c1)c1cc(O)c(O)c(O)c1 [EGCG, epigallocatechin gallate]
inhibitory effect on the binding of any NRF2 phospho-peptide to PIN1 (PIN1-NRF2 interaction [1]; inhibitor 100 µM, all three NRF2 phospho-peptides): did not show any inhibitory effect

CC(C)(C)c1ccc(S(=O)(=O)/N=C2\C=C(SCC(=O)O)C(=O)c3ccccc32)cc1 [KPT-6566]
fold reduction in binding affinity of NRF2_209-222^pSer215 (PIN1-NRF2 interaction [1]): 25 fold
fold reduction in binding affinity of NRF2_402-415^pSer408 (PIN1-NRF2 interaction [1]): 92 fold
fold reduction in binding affinity of NRF2_571-584^pSer577 (PIN1-NRF2 interaction [1]): 149 fold
IC50 (PIN1-NRF2 interaction [2]; [14]): 300 nM
IC50 (PIN1-NRF2 interaction [2]; [15]): 1400 nM
fold more potent than Juglone (PIN1-NRF2 interaction [2]; IC50 comparison, ligand displacement assay): ~ 20 fold
IC50 (PIN1-NRF2 interaction [2]; range over the three NRF2 phospho-peptides, read-out: IC50 range, inhibitory effect on PIN1-NRF2 interaction): 300 to 1400 nM
extent of covalent PIN1 modification (PIN1 [3]): only a small amount of covalent PIN1 modification was observed
mass increase of the major modified PIN1 species (PIN1 [3]): 353 Da
PIN1 mass increase (PIN1 [4]): 90 Da
NRF2-mediated oxidative stress elements (microarray analysis) (breast cancer cells): upregulation
NRF2 downstream enzymes cFOS, HO1, NQO1, TXNRD1, DNAJB9 at the mRNA level (quantitative RT-PCR) (breast cancer cells): upregulation

CSCC[C@H](NC(=O)[C@@H](NC(=O)[C@@H](NC(=O)[C@H](CCC(=O)O)NC(=O)CCCCCNC(=S)Nc1ccc2c(c1)C(=O)OC21c2ccc(O)cc2Oc2cc(O)ccc21)[C@@H](C)O)[C@@H](C)O)C(=O)N[C@H](C(=O)N1CCC[C@H]1C(=O)N[C@@H](COP(=O)(O)O)C(=O)N1CCC[C@H]1C(=O)N[C@@H](CCC(=O)O)C(=O)N[C@@H](C)C(=O)N[C@@H](CCCCN)C(=O)N[C@@H](CC(C)C)C(=O)N[C@H](C(=O)N[C@@H](CCC(=O)O)C(=O)O)[C@@H](C)O)C(C)C [NRF2_209-222^pSer215, ETTMVPpSPEAKLTE] ({FITC-Ahx}-ETTMVP[pS]PEAKLTE-OH; N-terminus assumed)
fold weaker interaction with PIN1 than the optimised Pintide ligand (GST-PIN1 [5]): tenfold

CSCC[C@H](NC(=O)[C@H](CC(=O)O)NC(=O)CCCCCNC(=S)Nc1ccc2c(c1)C(=O)OC21c2ccc(O)cc2Oc2cc(O)ccc21)C(=O)N[C@H](C(=O)N[C@@H](CCC(N)=O)C(=O)N1CCC[C@H]1C(=O)N[C@@H](CC(C)C)C(=O)N[C@@H](COP(=O)(O)O)C(=O)N1CCC[C@H]1C(=O)N[C@@H](CO)C(=O)N[C@@H](CCC(N)=O)C(=O)NCC(=O)N[C@@H](CCC(N)=O)C(=O)N[C@@H](CO)C(=O)N[C@H](C(=O)O)[C@@H](C)O)C(C)C [NRF2_402-415^pSer408, DMVQPLpSPSQGQST] ({FITC-Ahx}-DMVQPL[pS]PSQGQST-OH; N-terminus assumed)
fold weaker interaction with PIN1 than the optimised Pintide ligand (GST-PIN1 [5]): ~ 13 fold

O=C1C=CC(=O)c2c(O)cccc21 [juglone]
fold reduction in binding affinity of NRF2_209-222^pSer215 (PIN1-NRF2 interaction [1]): 8 fold
fold reduction in binding affinity of NRF2_402-415^pSer408 (PIN1-NRF2 interaction [1]): 18 fold
fold reduction in binding affinity of NRF2_571-584^pSer577 (PIN1-NRF2 interaction [1]): sixfold
IC50 (PIN1-NRF2 interaction [2]; GST-PIN1 1 µM, labelled NRF2_209-222^pSer215 10 nM, read-out: IC50, inhibition of NRF2_209-222^pSer215 binding to PIN1): 26800 nM
IC50 (PIN1-NRF2 interaction [2]; [14]): 20000 nM
IC50 (PIN1-NRF2 interaction [2]; [15]): 30000 nM

B1: fluorescein-labelled NRF2(209-222) pSer215 phospho-peptide (peptide)
peptide: {fluorescein-Ahx}-ETTMVP[pS]PEAKLTE-OH
notes: NRF2 (nuclear factor erythroid 2-related factor 2), residues 209-222, in the Neh7 domain; also called Peptide 1; source: synthetic peptide, bought: China Peptides
Kd (GST-PIN1 [6]): 1070 nM
Kd (GST-PIN1 [7]): 1300 nM
Kd (GST-PIN1 [8]): 4040 nM
Kd (GST-PIN1 [9]): 157 ± 15 nM

B2: fluorescein-labelled NRF2(571-584) pSer577 phospho-peptide (peptide)
peptide: {fluorescein-Ahx}-EDGKPY[pS]PSEYDLQ-OH
notes: NRF2 (nuclear factor erythroid 2-related factor 2), residues 571-584, in the Neh3 domain; see recheck for residue 582; source: synthetic peptide, bought: China Peptides
Kd (GST-PIN1 [10]): 200 nM
Kd (GST-PIN1 [6]): 1760 nM
Kd (GST-PIN1 [7]): 1000 nM
Kd (GST-PIN1 [8]): 25300 nM
Kd (GST-PIN1 [9]): 168 ± 25 nM

B3: fluorescein-labelled NRF2(402-415) pSer408 phospho-peptide (peptide)
peptide: {fluorescein-Ahx}-DMVQPL[pS]PSQGQST-OH
notes: NRF2 (nuclear factor erythroid 2-related factor 2), residues 402-415, linker between the Neh6 and Neh1 domains; source: synthetic peptide, bought: China Peptides
Kd (GST-PIN1 [6]): 1590 nM
Kd (GST-PIN1 [7]): 3900 nM
Kd (GST-PIN1 [8]): 20200 nM
Kd (GST-PIN1 [9]): 221 ± 40 nM

B4: Pintide, fluorescently labelled (peptide)
peptide: WFY[pS]PFLE
modifications: also: fluorescently labelled, site not given here
notes: source: synthetic peptide, bought: China Peptides
Kd (GST-PIN1 [9]): 17 ± 3 nM

B5: Pintide (competitor, not labelled) (peptide)
peptide: WFY[pS]PFLE
notes: also called WW domain-selective Pintide; source: synthetic peptide, bought: China Peptides
IC50 (GST-PIN1 [11]): 5700 nM
IC50 (GST-PIN1 [12]): 6800 nM
IC50 (GST-PIN1 [13]): 6700 nM
